This passage reports EC50 results from patent US8877707B2, “Inhibitors of HCV NS5A” (Presidio Pharmaceuticals, Inc., priority 2010, dated 2014).

Molecules are shown by their SMILES. pEC50: −log10 of the molar value.

The subject of this test is HCV genotype 1b replicon in Huh 7 cells. The test can be described thus: HCV replicon assay (1b_Huh-Luc/Neo-ET cell line, luciferase readout). Format: cell-based. The following applies: Hepatitis C virus, Huh-7; HCV 1b replicon; read-out: Inhibition of HCV genotype 1b. The method, boiled down:
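Replicon level was read as luciferase signal after 72 h compound exposure, triplicate wells, starting the day after cells were plated. Cell line: 1b_Huh-Luc/Neo-ET. Values normalised to control as percent, and EC50 fitted with a variable-slope sigmoid; determinations repeated.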
Background: In antiviral work, replicon cells carry a viral genome segment that copies itself.

For `COC(=O)N[C@H](C(=O)N1CCC[C@H]1c1ncc(-c2ccc3nc(-c4ccc(-c5cnc([C@@H]6CCCN6C(=O)[C@@H](NC(=O)OC)C6CCOCC6)[nH]5)c(F)c4)ccc3c2)[nH]1)C(C)C` [compound 454], the pEC50 is over 9.00.
The value for `COC(=O)N[C@H](C(=O)N1CCCC[C@H]1c1ncc(-c2ccc(-c3ccc4cc(-c5cnc([C@@H]6CCCN6C(=O)[C@@H](NC(=O)OC)C(C)C)[nH]5)ccc4n3)cc2)[nH]1)C(C)C` [compound 455] was over 9.00.
The value for `COC(=O)N[C@H](C(=O)N1CCCC[C@H]1c1ncc(-c2ccc(-c3ccc4cc(-c5cnc([C@@H]6CCCN6C(=O)[C@@H](NC(=O)OC)C6CCOCC6)[nH]5)ccc4n3)cc2)[nH]1)C1CCOCC1` [compound 456] was over 9.00; that for `COC(=O)N[C@@H](C(=O)N1CCCC[C@H]1c1ncc(-c2ccc(-c3ccc4cc(-c5cnc([C@@H]6CCCN6C(=O)[C@H](NC(=O)OC)c6ccccc6)[nH]5)ccc4n3)cc2)[nH]1)c1ccccc1` [compound 457] was over 9.00.
In the case of `O=C(N[C@@H](C(=O)N1CCCC[C@H]1c1ncc(-c2ccc(-c3ccc4cc(-c5cnc([C@@H]6CCCN6C(=O)[C@H](NC(=O)OC6CCOCC6)c6ccccc6)[nH]5)ccc4n3)cc2)[nH]1)c1ccccc1)OC1CCOCC1` [compound 458] it was over 9.00; in that of `COC(=O)N[C@@H](C)C(=O)N1CCC[C@H]1c1ncc(-c2ccc3nc(-c4ccc(-c5cnc([C@@H]6CCCN6C(=O)[C@H](NC(=O)OC)c6ccccc6)[nH]5)c(F)c4)ccc3c2)[nH]1` [compound 459], over 9.00.
Take `COC(=O)N[C@H](C(=O)N1CCC[C@H]1c1ncc(-c2ccc3nc(-c4ccc(-c5cnc([C@@H]6CCCN6C(=O)[C@H](NC(=O)OC)c6ccccc6)[nH]5)c(F)c4)ccc3c2)[nH]1)[C@@H](C)OC` [compound 460]: the pEC50 is over 9.00.
With `COC(=O)N[C@H](C(=O)N1CCC[C@H]1c1ncc(-c2ccc3cc(-c4ccc(-c5cnc([C@@H]6CCCN6C(=O)[C@H](NC(=O)OC)c6ccccc6)[nH]5)nn4)ccc3c2)[nH]1)C(C)C` [compound 461], the pEC50 was over 9.00.
For the compound `COC[C@H](NC(=O)OC)C(=O)N1CCC[C@H]1c1ncc(-c2ccc3cc(-c4ccc(-c5cnc([C@@H]6COCCN6C(=O)[C@@H](NC(=O)OC)c6ccccc6)[nH]5)cc4)ccc3c2)[nH]1` [compound 462], the pEC50 is over 9.00.
Consider `COC[C@H](NC(=O)OC)C(=O)N1CCC[C@H]1c1ncc(-c2ccc(-c3ccc4cc(-c5cnc([C@@H]6CCCN6C(=O)[C@H](COC)NC(=O)OC)[nH]5)ccc4c3)cc2)[nH]1` [compound 463], for which the pEC50 was over 9.00.
In the case of `COC(=O)N[C@@H](C)C(=O)N1CCC[C@H]1c1ncc(-c2ccc3cc(-c4ccc(-c5cnc([C@@H]6CCCN6C(=O)[C@H](NC(=O)OC)c6ccsc6)[nH]5)cc4)ccc3c2)[nH]1` [compound 464] it was over 9.00.
The value for `COC[C@H](NC(=O)OC)C(=O)N1CCC[C@H]1c1ncc(-c2ccc3cc(-c4ccc(-c5cnc([C@@H]6CCCN6C(=O)[C@H](NC(=O)OC)c6ccsc6)[nH]5)cc4)ccc3c2)[nH]1` [compound 465] was over 9.00.
In the case of `COC(=O)N[C@H](C(=O)N1CCC[C@H]1c1ncc(-c2ccc3cc(-c4ccc(-c5cnc([C@@H]6CCCN6C(=O)[C@H](NC(=O)OC)c6ccsc6)[nH]5)cc4)ccc3c2)[nH]1)C(C)C` [compound 466] it was over 9.00; in that of `COC(=O)N[C@@H](CC(C)C)C(=O)N1CCC[C@H]1c1ncc(-c2ccc3nc(-c4ccc(-c5cnc([C@@H]6CCCN6C(=O)[C@H](NC(=O)OC)c6ccccc6)[nH]5)c(F)c4)ccc3c2)[nH]1` [compound 467], over 9.00; in that of `COC(=O)N[C@H](C(=O)N1CCC[C@H]1c1ncc(-c2ccc3nc(-c4ccc(-c5cnc([C@@H]6CCCN6C(=O)[C@H](NC(=O)OC)c6ccccc6)[nH]5)c(F)c4)ccc3c2)[nH]1)C1CCCC1` [compound 468], over 9.00.
`COC(=O)N[C@H](C(=O)N1CCC[C@H]1c1ncc(-c2ccc3nc(-c4ccc(-c5cnc([C@@H]6CN(C(=O)OC)CCN6C(=O)[C@@H](NC(=O)OC)C(C)C)[nH]5)cc4)ccc3c2)[nH]1)C(C)C` [compound 469]: the pEC50 is over 9.00.
In the case of `COC(=O)N[C@H](C(=O)N1CCN(C(=O)OC)C[C@H]1c1ncc(-c2ccc(-c3ccc4cc(-c5cnc([C@@H]6CCCN6C(=O)[C@@H](NC(=O)OC)C6CCOCC6)[nH]5)ccc4n3)cc2)[nH]1)C(C)C` [compound 470], the pEC50 was over 9.00.
In the case of `COC(=O)N[C@H](C(=O)N1CCN(C(=O)OC)C[C@H]1c1ncc(-c2ccc(-c3ccc4cc(-c5cnc([C@@H]6CCCN6C(=O)[C@H](NC(=O)OC)c6ccccc6)[nH]5)ccc4n3)cc2)[nH]1)C(C)C` [compound 471], the pEC50 is over 9.00.
In the case of `COC(=O)N[C@H](C(=O)N1CCN(C(=O)OC)C[C@H]1c1ncc(-c2ccc(-c3ccc4cc(-c5cnc([C@@H]6CCCN6C(=O)[C@H](NC(=O)OC6CCOCC6)c6ccccc6)[nH]5)ccc4n3)cc2)[nH]1)C(C)C` [compound 472] it was over 9.00; in that of `COC(=O)N[C@H](C(=O)N1CCC[C@H]1c1ncc(-c2ccc3nc(-c4ccc(-c5cnc([C@@H]6CCCN6C(=O)[C@H](NC(=O)OC)c6ccccc6)[nH]5)c(F)c4)ccc3c2)[nH]1)C1CCOCC1` [compound 473], over 9.00; in that of `COC(=O)N[C@@H](C(=O)N1CCC[C@H]1c1ncc(-c2ccc(-c3ccc4cc(-c5cnc([C@@H]6CCCN6C(=O)[C@H](NC(=O)OC6CCOCC6)c6ccccc6)[nH]5)ccc4n3)cc2F)[nH]1)c1ccccc1` [compound 474], over 9.00.
In the case of `COC(=O)N[C@H](C(=O)N1CCC[C@H]1c1ncc(-c2ccc(-c3ccc4cc(-c5cnc([C@@H]6CCCN6C(=O)[C@@H](NC(=O)OC)[C@@H](C)OC)[nH]5)ccc4n3)cc2F)[nH]1)C(C)C` [compound 475] it was over 9.00; in that of `COC(=O)N[C@H](C(=O)N1CCC[C@H]1c1ncc(-c2cnc(-c3ccc4cc(-c5cnc([C@@H]6CCCN6C(=O)[C@@H](NC(=O)OC)C(C)C)[nH]5)ccc4c3)nc2)[nH]1)C(C)C` [compound 476], over 9.00; in that of `COC[C@H](NC(=O)OC)C(=O)N1CCC[C@H]1c1ncc(-c2ccc3cc(-c4ccc(-c5cnc([C@@H]6CCCN6C(=O)[C@H](NC(=O)OC)c6ccccc6)[nH]5)nn4)ccc3c2)[nH]1` [compound 477], over 9.00.
The value for `COC(=O)N[C@H](C(=O)N1CCC[C@H]1c1ncc(-c2ccc3cc(-c4ccc(-c5cnc([C@@H]6CCCN6C(=O)[C@H](NC(=O)OC)c6ccsc6)[nH]5)cc4)ccc3c2)[nH]1)[C@@H](C)O` [compound 478] was over 9.00.
For the compound `COC(=O)N[C@H](C(=O)N1CCC[C@H]1c1ncc(-c2ccc(-c3ccc4cc(-c5cnc([C@@H]6CCCN6C(=O)[C@@H](NC(=O)OC)[C@@H](C)OC)[nH]5)ccc4c3)nc2)[nH]1)C(C)C` [compound 479], the pEC50 was over 9.00.
The value for `COC(=O)N[C@H](C(=O)N1CCC[C@H]1c1ncc(-c2ccc3cc(-c4ccc(-c5cnc([C@@H]6CCCN6C(=O)[C@H](NC(=O)OC)c6ccccc6)[nH]5)cn4)ccc3c2)[nH]1)[C@@H](C)OC` [compound 480] was over 9.00; that for `COC(=O)N[C@H](C(=O)N1CCC[C@H]1c1ncc(-c2ccc(-c3ccc4cc(-c5cnc([C@@H]6CCCN6C(=O)[C@@H](NC(=O)OC)[C@@H](C)OC)[nH]5)ccc4c3)cc2)[nH]1)C(C)C` [compound 481] was over 9.00.
For `COC(=O)N[C@H](C(=O)N1CCC[C@H]1c1ncc(-c2ccc(-c3ccc4cc(-c5cnc([C@@H]6CCCN6C(=O)[C@@H](NC(=O)OC)[C@@H](C)OC)[nH]5)ccc4n3)cc2)[nH]1)[C@@H](C)OC` [compound 482], the pEC50 was over 9.00.
The value for `COC(=O)N[C@H](C(=O)N1CCC[C@H]1c1ncc(-c2ccc(-c3cc4ccc(-c5cnc([C@@H]6CCCN6C(=O)[C@H](NC(=O)OC)c6ccccc6)[nH]5)cc4cn3)cc2)[nH]1)[C@@H](C)OC` [compound 483] was over 9.00.
The value for `COC(=O)N[C@H](C(=O)N1CCC[C@H]1c1ncc(-c2ccc(-c3cc4ccc(-c5cnc([C@@H]6CCCN6C(=O)[C@H](NC(=O)OC)c6ccccc6)[nH]5)cc4cn3)cc2)[nH]1)[C@@H](C)O` [compound 484] was over 9.00.
In the case of `COC(=O)N[C@@H](C(=O)N1CCC[C@H]1c1ncc(-c2ccc(-c3ccc4cc(-c5cnc([C@@H]6CCCN6C(=O)[C@H](NC(=O)OC)c6ccsc6)[nH]5)ccc4n3)c(F)c2)[nH]1)c1ccccc1` [compound 485] it was over 9.00.
Consider `C=CC[C@H](NC(=O)OC)C(=O)N1CCC[C@H]1c1ncc(-c2ccc3nc(-c4ccc(-c5cnc([C@@H]6CCCN6C(=O)[C@H](NC(=O)OC)c6ccccc6)[nH]5)cc4F)ccc3c2)[nH]1` [compound 486], for which the pEC50 is over 9.00.
In the case of `C#CC[C@H](NC(=O)OC)C(=O)N1CCC[C@H]1c1ncc(-c2ccc3nc(-c4ccc(-c5cnc([C@@H]6CCCN6C(=O)[C@H](NC(=O)OC)c6ccccc6)[nH]5)cc4F)ccc3c2)[nH]1` [compound 487] it was over 9.00.
In the case of `COC(=O)N[C@H](C(=O)N1CCC[C@H]1c1ncc(-c2cnc3cc(-c4ccc(-c5cnc([C@@H]6CCCN6C(=O)[C@@H](NC(=O)OC)[C@@H](C)OC)[nH]5)cc4)ccc3c2)[nH]1)C(C)C` [compound 488] it was over 9.00; in that of `COC(=O)N[C@H](C(=O)N1CCC[C@H]1c1ncc(-c2ccc3nc(-c4ccc(-c5cnc([C@@H]6CCCN6C(=O)[C@H](NC(=O)OC)c6ccccc6)[nH]5)cc4)ccc3c2)[nH]1)[C@@H](C)OC` [compound 489], over 9.00; in that of `COC(=O)N[C@H](C(=O)N1CCC[C@H]1c1ncc(-c2ccc3nc(-c4ccc(-c5cnc([C@@H]6CCCN6C(=O)[C@H](NC(=O)OC)c6ccccc6)[nH]5)cc4)ccc3c2)[nH]1)[C@@H](C)O` [compound 490], over 9.00.
The value for `COC(=O)N[C@@H](C)C(=O)N1CCC[C@H]1c1ncc(-c2ccc3nc(-c4ccc(-c5cnc([C@@H]6CCCN6C(=O)[C@H](NC(=O)OC)c6ccccc6)[nH]5)cc4)ccc3c2)[nH]1` [compound 491] was over 9.00.
